Reference: US7109240B2, “Non-hazardous pest control” (Ecosmart Technologies, Inc., priority 1993, dated 2006)

Legend:
[1] = test system: German cockroaches; experiment: Knockdown of cockroaches continuously confined to calcium carbonate + 5% neurally effective substance; assay type: in vivo, Blattella, germanica; settings: for insecticidal activity (in words): 5% (wt/wt) in calcium carbonate, or dust alone; for KT50 / KT90 / KT90, Hours: 5% (wt/wt) ingredient in calcium carbonate, or dust alone, 1.2 cc, 78 ± 4° F., 55 ± 6% rh
Protocol: (§1) Continuous exposure tests.—The intrinsic insecticidal activity of the insecticide dust against B. germanica was determined by exposing cockroaches to fresh and aged deposits of the dust. Replicated groups of three to ten adult cockroaches from culture were confined to deposits of the dust, and its speed of action in terms of knockdown (KD) and paralysis was determined. Adult male cockroaches from culture were placed directly onto fairly heavy deposits of dust (1 to 1.2 cc) spread evenly on filter paper in covered 9-cm-diameter petri dishes. The time for irreversible KD to occur (KT) was determined from periodic, irregular observation. The insects were considered KD when they were on their back, or could be turned over, and could not right themselves within at least two minutes. […] Comparison of KD activity was made with some commercial dust formulations including a non-fluorinated silica aerogel (SG-68), Drione™ (a fluorinated silica aerogel+pyrethrins), and a commercial diatomaceous earth (Celite™) applied and tested in the same manner.
(§2) The beads were screened out of the resultant mix. Exactly 1.2 cc of dust or dust was spread onto Whatman filter paper in 9-cm-diam petri dishes and the knockdown (KD) of cockroaches confined to the dust mix was determined by periodically observing KD.

[2] = test system: German cockroaches; settings: choice box; repellency measure
Protocol: Choice box tests.—The activity and repellency of the present insecticide dust in a choice test was determined with standard two-compartment choice boxes.
Choice boxes are 30.5 cm square, 10 cm tall wooden boxes, with a tempered masonite floor. A vertical partition panel separates the box into two equal-sized compartments. A 1.3 cm hole at the top center of the partition panel allows cockroaches to move from one compartment to the other. Transparent sheet plexiglass (0.3 cm thick) taped to the top retains cockroaches in the box and allows observation of live and dead in each compartment. A piece of masonite keeps one compartment dark (dark compartment). […]
Five boxes were used for each treatment and the untreated control. […] Cockroaches prefer to aggregate in the dark, and they will normally readily move from the light compartment to the dark compartment of untreated choice boxes within a day or two. […] The number dead and alive in each compartment of each box was recorded every few days. […]
The mortality produced in choice boxes, and the position of cockroaches in relation to the treatment, provides a measure of the likely ultimate efficacy of a treatment when used under actual field conditions. […] On the other hand, slow-acting insecticides such as boric acid are effective in choice box tests because cockroaches readily walk on those deposits and are eventually killed by them.

[3] = test system: German cockroaches; experiment: Phenol vs. terpineol in calcium carbonate: knockdown of cockroaches; assay type: in vivo, Blattella, germanica
Protocol: as §2
A further test was conducted to compare the effectiveness of phenol vs. terpineol as a neurally effective substance.

[4] = test system: adult male German cockroaches; experiment: Control test: knockdown of cockroaches continuously confined to deposits of the solid dust components; assay type: in vivo, Blattella, germanica; settings: continuously confined to dust deposit; 76° F., 55% relative humidity
Protocol: as §1
A control test was conducted using only the solid components of the embodiment.

[5] = 0.32 % (wt/wt) in calcium carbonate
[6] = 0.63 % (wt/wt) in calcium carbonate
[7] = 1.25 % (wt/wt) in calcium carbonate
[8] = 2.5 % (wt/wt) in calcium carbonate
[9] = 5.0 % (wt/wt) in calcium carbonate

In the case of `CCCCC/C(C=O)=C/c1ccccc1` [Amyl cinnamic aldehyde, 5%, Amyl cinnamic aldehyde], the “insecticidal activity (in words)” value [1] is reported as “much slower, about as active as diatomaceous earth”, the “KT50” value [1] is reported as 9.4 h and the “KT90” value [1] is reported as 15.5 h.
With `CC(=O)OCc1ccccc1` [Benzyl acetate] the “insecticidal activity (in words)” value [1] was “most active”, the “KT50” value [1] was 0.7 h and the “KT90” value [1] was 1.0 h. The “KT90, Hours” value ([1]; listed as benzyl acetate) was “about one hour or so”.
`OB(O)O` [Boric acid, tech., Boric acid] was tested, and the “% of live in light on day 1” value [2] was 13% and the “% of live in light on day 7” value [2] was 100%.
With `O=C([O-])[O-].[Ca+2]` [Calcium carbonate (CaCO3), Calcium carbonate] the “insecticidal activity (in words)” value [1] was “not insecticidal” and the “% KD at 24 h” value ([1]; dust alone) was “(1.3% KD at 24 h)”.
For `CCOC(=O)c1ccccc1C(=O)OCC` [Diethyl phthalate], the “insecticidal activity (in words)” value [1] was “not insecticidal”.
In the case of `Oc1ccccc1` [Phenol], the “KT-50” value [3, 5] is reported as 16.5 h, the “KT-90” value [3, 5] is reported as 24.0 h and the “KT-50” value [3, 6] is reported as 7.5 h. The “KT-90” value [3, 6] was 20.3 h, the “KT-50” value [3, 7] was 0.4 h and the “KT-90” value [3, 7] was 1.5 h. The “KT-50” value [3, 8] was 0.2 h, the “KT-90” value [3, 8] was 0.4 h and the “KT-50” value [3, 9] was <0.1 h. For the same molecule, the “KT-90” value [3, 9] was 0.1 h and the “insecticidal activity (in words)” value ([3]; in CaCO3, every rate tested) was “more insecticidal than terpineol”.
With `OCCc1ccccc1` [Phenyl ethyl alcohol] the “insecticidal activity (in words)” value [1] was “most active”, the “KT50” value [1] was 0.7 h and the “KT90” value [1] was 1.0 h. The “KT90, Hours” value ([1]; listed as phenyl ethyl alcohol) was “about one hour or so”.
With `O=C([O-])O.[Na+]` [Sodium bicarbonate (NaHCO3), Sodium bicarbonate] the “KT50” value [4] was 16.5 h, the “KT90” value [4] was 20.9 h and the “KT50” value [1] was 9.7 h. The “KT90” value [1] was 16.0 h.
